Converted amounts (≈) assume the structure as drawn. Read-outs that look alike come from different tables or passages of the source.
Key:
[1] = set-up: method as in earlier work; details: mouse, i.v., 0.5-1 mg/kg; * previously published; cited from earlier work
human CB1R [2] = biological target: T1, human CB1R (Homo sapiens, UniProt P21554); details: * previously published; read-out: hCB1R: beta arrestin EC50; cited from earlier work
T1 construct: host or cells: CHO

[3] = cited from earlier work
[4] = human and mouse liver microsomes; underlying data previously published; cited from earlier work
human P-gp = details: cited from earlier work
[5] = Chemical stability (aqueous stability assay ASTA); assay type: physicochemical; details: aqueous buffer, 37 °C
Procedure: Chemical Stability (= Aqueous Stability Assay ASTA)
ASTA is a fully automated assay to determine the 2 h stability of a molecule in aqueous conditions, over the pH range 1–10. Five different pH values are used and the solutions are heated at 37 °C. A compound is classified unstable if, after 2 h, less than 90% of the initial concentration can be found. Samples are first prepared on incubation plates and shaken initially for 10 min at 37 °C.
Solutions are then transferred to a filter plate (Millipore MSGVN2250, pore size 0.22 µm) and filtrated into V-bottom plates (from ABGene, AB-0800) that are heat-sealed prior to HPLC analysis. The procedure is performed a second time. However, the incubation time at 37 °C for the second plate is increased by 2 h. Samples are taken at time point 0 and 2 h and analyzed by HPLC. […]

[6] = * previously published; cited from earlier work
[7] = * previously published; cited from earlier work; remark: listed apart in the source
human CB1R [8] = biological target: T1, human CB1R; details: * previously published, cited from earlier work
[9] = human hepatocytes; * previously published; cited from earlier work
[10] = Saturation (thermodynamic) solubility in buffer, FaSSIF, FeSSIF; assay type: physicochemical; details: thermodynamic from solid
Procedure: Saturation Solubility (= Thermodynamic Solubility)
Approximately 8.6 mg test compound per milliliter solvent/vehicle was stirred in HPLC vials (9 × 12 × 32 mm, Waters) at 350 rpm for 15 h. Samples of 10 µL each were taken and microscopically examined for presence of solid particles. If the active pharmacological ingredient (API) dissolved completely, more solid API was added, and stirring was continued for another 15 h. Addition of solid material was repeated up to 96 h or until residual solid particles could be detected. Samples of 0.5 mL were then transferred to Eppendorf Ultrafree filter tubes (Filter: PVDF 0.22 µm) and centrifuged at 14,500 rpm for 10 min. The filtrates were diluted in ethanol and analyzed for content by UPLC. The measurements were also conducted in 0.05 M aqueous phosphate buffer, fasted (FaSSIF), and fed (FeSSIF) simulated gastrointestinal fluid. […]

mouse CB2R = mouse CB2R (Mus musculus, UniProt P47936); experiment: cell-based; assay type: cell-based; set-up: bgal (beta-galactosidase fragment of the PathHunter system, named only in the cell line's name); host or cells: CHO-K1 (CHOK1mCB2_bgal)
Procedure: Assays were carried out using the PathHunter hCB1_bgal, hCB2_bgal, or mCB2_bgal CHOK1 β-arrestin recruitment assay kit (DiscoveRx, Fremont, CA, USA) as previously described. A total of 5000 cells per well were seeded in 384-well plates (Perkin Elmer, MA, USA) containing 20 μL cell culture medium and incubated for 16–18 h at 37 °C and 5% CO2. Cells were stimulated with 10 μM of each agonist or 11 increasing concentrations and incubated for 90 min at 37 °C and 5% CO2. […] The cells were incubated for 90 min at 37 °C and 5% CO2. Compounds in DMSO stock solutions were added using a HP D300 Digital Dispenser (Tecan, Mannedorf, Switzerland). The final concentration of organic solvent per assay point was ≤ 0.1%. The PathHunter Detection mixture was used, according to the manufacturer’s protocol, to determine the β-galactosidase enzyme activity. Detection mixture, 12 μL per well, was added and the plate was incubated for 1 h in the dark at room temperature. Chemiluminescence, indicated as relative light unit, was measured on an EnVision multilabel plate reader (Perkin Elmer, MA, USA).

[11] = mouse, * previously published, cited from earlier work
[12] = oral, HU308 5 mg/kg, others 3 mg/kg

T1 sequence (P21554 whole entry): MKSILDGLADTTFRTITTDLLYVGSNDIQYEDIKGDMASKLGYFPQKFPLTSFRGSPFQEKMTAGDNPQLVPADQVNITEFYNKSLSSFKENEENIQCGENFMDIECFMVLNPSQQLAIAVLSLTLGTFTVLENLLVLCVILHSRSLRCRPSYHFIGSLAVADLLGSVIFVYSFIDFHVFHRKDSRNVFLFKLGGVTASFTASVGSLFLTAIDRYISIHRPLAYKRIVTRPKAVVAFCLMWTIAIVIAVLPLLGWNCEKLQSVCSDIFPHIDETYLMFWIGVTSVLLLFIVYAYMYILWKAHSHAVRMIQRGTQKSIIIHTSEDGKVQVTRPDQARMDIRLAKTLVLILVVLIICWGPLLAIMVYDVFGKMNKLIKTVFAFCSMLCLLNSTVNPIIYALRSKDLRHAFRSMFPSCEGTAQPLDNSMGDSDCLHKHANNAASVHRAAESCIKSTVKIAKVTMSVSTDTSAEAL
Sequence of mouse CB2R (P47936 whole entry, the tested form may be a part): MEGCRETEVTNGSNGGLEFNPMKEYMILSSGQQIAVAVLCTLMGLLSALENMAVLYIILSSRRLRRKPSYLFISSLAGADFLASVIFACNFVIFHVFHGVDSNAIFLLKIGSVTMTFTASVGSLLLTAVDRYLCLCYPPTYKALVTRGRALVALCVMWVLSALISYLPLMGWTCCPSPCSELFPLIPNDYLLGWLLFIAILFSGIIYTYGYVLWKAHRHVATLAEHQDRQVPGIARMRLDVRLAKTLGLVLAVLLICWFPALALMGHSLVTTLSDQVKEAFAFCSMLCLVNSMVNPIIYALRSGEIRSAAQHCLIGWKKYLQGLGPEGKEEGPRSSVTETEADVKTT

Cc1nc([C@](C)(CC2CC2)NC(=O)c2cc(OCC(F)(F)F)c(C3CC3)cn2)no1 [RO6871085, 5-Cyclopropyl-N-[(2S)-1-cyclopropyl-2-(5-methyl-1,2,4-oxadiazol-3-yl)propan-2-yl]-4-(2,2,2-trifluoroethoxy)pyridine-2-carboxamide]
AUCINF D [1]: 1412 ng·kg·h/mL/mg | Clearance (CL) [1]: 11.8 mL/min/kg | T1/2 [1]: 4.15 h | Vss [1]: 4.0 L/kg | EC50 (human CB1R [2]): > 30 µM | PAMPA Peff ([3]; * at end of cell: previously published): 2.44 10*-6 cm/s | PAMPA %Acceptor ([3]; * previously published): 2% | PAMPA %Donor ([3]; * previously published): 20% | PAMPA %Membrane ([3]; * previously published): 78% | clearance in human as well as mouse microsomes (class in words) [4]: low to medium clearances | P-glycoprotein-Mediated Efflux Extraction Ratio human (human P-gp; human P-gp, * previously published): 1.4 | P-gp substrate, human (human P-gp; underlying data previously published): not a P-gp substrate | remaining at 2 h ([5]; pH 1, 2 h, read-out: Chemical Stability in Aqueous Buffer at pH 1 (% remaining after 2 h at 37 °C)): 99% | remaining at 2 h ([5]; pH 4, 2 h, read-out: Chemical Stability in Aqueous Buffer at pH 4 (% remaining after 2 h at 37 °C)): 99% | remaining at 2 h ([5]; pH 6.5, 2 h, read-out: Chemical Stability in Aqueous Buffer at pH 6.5 (% remaining after 2 h at 37 °C)): 97% | remaining at 2 h ([5]; pH 8, 2 h, read-out: Chemical Stability in Aqueous Buffer at pH 8 (% remaining after 2 h at 37 °C)): 99% | remaining at 2 h ([5]; pH 10, 2 h, read-out: Chemical Stability in Aqueous Buffer at pH 10 (% remaining after 2 h at 37 °C)): 99% | Plasma Protein Binding: FREE Fraction human [6]: 1.0% | LogD (at pH 7.4) [7]: 3.94 | EC50 (human CB1R [8]; read-out: hCB1R: cAMP EC50): 1.45 µM | hCB1R: cAMP efficacy (human CB1R [8]; second number of the cell, relative to 1 µM CP55940): 38% | Hepatocyte Clearance human [9]: 17 μL/min/Mio cells | solubility thermodynamic ([10]; FaSSIF pH 6.5, read-out: Thermodynamic Solubility in FaSSIF (pH 6.5)): 37 µg/mL (≈ 87.2 µM) | solubility thermodynamic ([10]; FeSSIF pH 5.5, read-out: Thermodynamic Solubility in FeSSIF (pH 5.5)): 56 µg/mL (≈ 132 µM) | solubility thermodynamic ([10]; aqueous phosphate buffer pH 6.5, read-out: Thermodynamic Solubility in Aqueous Buffer (pH 6.5)): 3 µg/mL (≈ 7.07 µM) | activity in mouse CB2R β-arrestin assay (mouse CB2R): not active | EC50 (mouse CB2R; read-out: mouse CB2R: beta arrestin EC50): > 30 µM | F ([11]; oral 3 mg/kg): 68% | T1/2 [11, 12]: 8.42 h | Tmax [11, 12]: 0.5 h
